Measurements from patent US20240024273A1, “TOPICAL ADMINISTRATION OF 2-(DIETHYLAMINO)ETHYL 2-(4-ISOBUTYLPHENYL)PROPRIONATE FOR TREATMENT OF DISEASES” (TECHFIELDS PHARMA CO., LTD., priority 2020, published 2024).

Test system: Mild to Moderate Osteoarthritis of the Knee
Assay: Phase 2 study: WOMAC joint stiffness subscale score
Assay type: in vivo, human
Conditions: for Change of WOMAC Joint Stiffness score from baseline (±SEM) / Percentage of improvement from baseline, WOMAC Joint Stiffness score: all patients taken as active
From the text: This is a Phase 2, multicenter, randomized, double blind (within dose), placebo controlled, parallel group, proof of concept, and dose range finding study to evaluate the efficacy, safety, and PK of 2-(diethylamino)ethyl 2-(4-isobutylphenyl)propionate hydrochloride spray in adult subjects with clinically symptomatic mild to moderate OA of the knee. For subjects with bilateral knee pain, both knees will be treated, but the most symptomatic knee (i.e., the most painful knee as measured by the Western Ontario and McMaster University Osteoarthritis Index [WOMAC® 3.1] pain subscale score at Screening) will be designated as the target knee for efficacy analyses. For subjects with unilateral knee pain, only the symptomatic (target) knee will be treated.
After a Screening Period of up to 3 weeks and radiographic evaluation of the target knee joint space, a subject will be randomly assigned to 1 of 3 treatment groups in a 1:1:1 ratio with a 2:1 ratio of active:placebo within each treatment group (ie, 2 subjects to active treatment and 1 subject to placebo): • Group A: 8.75 mg 2-(diethylamino)ethyl 2-(4-isobutylphenyl)propionate/knee (2 sprays/knee, one spray to the medial surface and one spray to the lateral surface of the knee), twice daily (BID, approximately every 12 hours; n=50) or placebo (2 sprays/knee), BID (approximately every 12 hours; n=25) for a total of 4 sprays per knee per day; • Group B: 17.5 mg 2-(diethylamino)ethyl 2-(4-isobutylphenyl)propionate/knee (4 sprays/knee, one spray to the medial surface and one spray to the lateral surface of the knee, and one spray to front and one spray to the back of the knee), BID (approximately every 12 hours; n=50) or placebo (4 sprays/knee), BID (approximately every 12 hours; n=25) for a total of 8 sprays per knee per day; • Group C: 35 mg 2-(diethylamino)ethyl 2-(4-isobutylphenyl)propionate/knee (8 sprays/knee, each spray is to be applied to a different non-overlapping area around the knee, and the areas are to be uniformly distributed around the knee), BID (approximately every 12 hours; n=50) or placebo (8 sprays/knee), BID (approximately every 12 hours; n=25) for a total of 16 sprays per knee per day.
The VAS version of the WOMAC will be used for the Primary and Secondary Efficacy Endpoints. Efficacy endpoints will be assessed at Screening and Baseline (Day 1) and at the Week 2, Week 4, Week 8, and Week 12/EOS visits.
3.9.2. Secondary Efficacy Endpoints: • 1. Change from Baseline in the WOMAC (VAS) pain subscale score for the target knee at 2, 4, and 8 weeks of treatment; • 2. Change from Baseline in the WOMAC (VAS) stiffness subscale scores for the target knee and WOMAC (VAS) functional ability subscale scores at 2, 4, 8, and 12 weeks of treatment; • 3. Change from Baseline in the overall WOMAC (VAS) score at 2, 4, 8, and 12 weeks of treatment.
The Secondary Efficacy Endpoints, change from Baseline in the WOMAC subscale scores for pain, stiffness, and functional ability, and overall WOMAC score at 2, 4, 8, and 12 weeks of treatment, will be analyzed using the same methods as for the Primary Efficacy Endpoint.
To determine this, we assumed that all patients received 2-(diethylamino)ethyl 2-(4-isobutylphenyl)propionate, active drug treatment (i.e. all patients who received 2-(diethylamino)ethyl 2-(4-isobutylphenyl)propionate or placebo treatment for 12 weeks or mixed up treatment during the 12-week treatment, as 2-(diethylamino)ethyl 2-(4-isobutylphenyl)propionate-treated). Based on this assumption, that is, to treat this trial as an open-label study and that all patients received active treatment, we conducted efficacy analysis using top-line efficacy datasets prepared by CRO and the re-analysis results are presented in the following tables (Tables 29-47). […] (William G. Bensen, Justus J. Fiechtner, James 1. McMillen, et. al. Treatment of Osteoarthritis with Celecoxib. Mayo Clin Proc, November 1999. Vol 74, 1095-1105.)

[1] = 8.75 mg/knee (BID), Follow up (week 13, day 91)
[2] = 8.75 mg/knee (BID), Week 2 (day 14)
[3] = 8.75 mg/knee (BID), Week 4 (day 28)
[4] = 8.75 mg/knee (BID), Week 8 (day 56)
[5] = 8.75 mg/knee (BID), Week 12 (day 84)
[6] = 17.5 mg/knee (BID), Follow up (week 13, day 91)
[7] = 17.5 mg/knee (BID), Week 2 (day 14)
[8] = 17.5 mg/knee (BID), Week 4 (day 28)
[9] = 17.5 mg/knee (BID), Week 8 (day 56)
[10] = 17.5 mg/knee (BID), Week 12 (day 84)
[11] = 35 mg/knee (BID), Follow up (week 13, day 91)
[12] = 35 mg/knee (BID), Week 2 (day 14)
[13] = 35 mg/knee (BID), Week 4 (day 28)

## CCN(CC)CCOC(=O)C(C)c1ccc(CC(C)C)cc1 (stereo not shown) [2-(diethylamino)ethyl 2-(4-isobutylphenyl)propionate]
[1]
  Change of WOMAC Joint Stiffness score from baseline (±SEM), adjusted by […] of the Testing Drug Amount: −39.1(±5.1) mm
  Percentage of improvement from baseline, WOMAC Joint Stiffness score, adjusted by […] of the Testing Drug Amount: −60.9%
  Change of WOMAC Joint Stiffness score from baseline (±SEM): −22.8(±3.7) mm
  Percentage of improvement from baseline, WOMAC Joint Stiffness score: −35.5%
[2]
  Change of WOMAC Joint Stiffness score from baseline (±SEM), adjusted by […] of the Testing Drug Amount: −20.1(±4.3) mm
  Percentage of improvement from baseline, WOMAC Joint Stiffness score, adjusted by […] of the Testing Drug Amount: −31.2%
  Change of WOMAC Joint Stiffness score from baseline (±SEM): −11.7(±2.5) mm
  Percentage of improvement from baseline, WOMAC Joint Stiffness score: −18.2%
[3]
  Change of WOMAC Joint Stiffness score from baseline (±SEM), adjusted by […] of the Testing Drug Amount: −31.7(±5.7) mm
  Percentage of improvement from baseline, WOMAC Joint Stiffness score, adjusted by […] of the Testing Drug Amount: −49.4%
  Change of WOMAC Joint Stiffness score from baseline (±SEM): −18.5(±3.3) mm
  Percentage of improvement from baseline, WOMAC Joint Stiffness score: −28.8%
[4]
  Change of WOMAC Joint Stiffness score from baseline (±SEM), adjusted by […] of the Testing Drug Amount: −37.6(±6.0) mm
  Percentage of improvement from baseline, WOMAC Joint Stiffness score, adjusted by […] of the Testing Drug Amount: −58.5%
  Change of WOMAC Joint Stiffness score from baseline (±SEM): −21.9(±3.5) mm
  Percentage of improvement from baseline, WOMAC Joint Stiffness score: −34.1%
[5]
  Change of WOMAC Joint Stiffness score from baseline (±SEM), adjusted by […] of the Testing Drug Amount: −38.4(±5.3) mm
  Percentage of improvement from baseline, WOMAC Joint Stiffness score, adjusted by […] of the Testing Drug Amount: −59.7%
  Change of WOMAC Joint Stiffness score from baseline (±SEM): −22.4(±3.1) mm
  Percentage of improvement from baseline, WOMAC Joint Stiffness score: −34.8%
[6]
  Change of WOMAC Joint Stiffness score from baseline (±SEM), adjusted by […] of the Testing Drug Amount: −44.7(±6.2) mm
  Percentage of improvement from baseline, WOMAC Joint Stiffness score, adjusted by […] of the Testing Drug Amount: −65.9%
  Change of WOMAC Joint Stiffness score from baseline (±SEM): −26.1(±3.6) mm
  Percentage of improvement from baseline, WOMAC Joint Stiffness score: −38.4%
[7]
  Change of WOMAC Joint Stiffness score from baseline (±SEM), adjusted by […] of the Testing Drug Amount: −32.2(±4.3) mm
  Percentage of improvement from baseline, WOMAC Joint Stiffness score, adjusted by […] of the Testing Drug Amount: −47.3%
  Change of WOMAC Joint Stiffness score from baseline (±SEM): −18.8(±2.5) mm
  Percentage of improvement from baseline, WOMAC Joint Stiffness score: −27.6%
[8]
  Change of WOMAC Joint Stiffness score from baseline (±SEM), adjusted by […] of the Testing Drug Amount: −40.0(±5.1) mm
  Percentage of improvement from baseline, WOMAC Joint Stiffness score, adjusted by […] of the Testing Drug Amount: −58.8%
  Change of WOMAC Joint Stiffness score from baseline (±SEM): −23.3(±3.0) mm
  Percentage of improvement from baseline, WOMAC Joint Stiffness score: −34.3%
[9]
  Change of WOMAC Joint Stiffness score from baseline (±SEM), adjusted by […] of the Testing Drug Amount: −45.5(±5.3) mm
  Percentage of improvement from baseline, WOMAC Joint Stiffness score, adjusted by […] of the Testing Drug Amount: −66.9%
  Change of WOMAC Joint Stiffness score from baseline (±SEM): −26.5(±3.1) mm
  Percentage of improvement from baseline, WOMAC Joint Stiffness score: −39.0%
[10]
  Change of WOMAC Joint Stiffness score from baseline (±SEM), adjusted by […] of the Testing Drug Amount: −51.1(±5.8) mm
  Percentage of improvement from baseline, WOMAC Joint Stiffness score, adjusted by […] of the Testing Drug Amount: −75.1%
  Change of WOMAC Joint Stiffness score from baseline (±SEM): −29.8(±3.4) mm
  Percentage of improvement from baseline, WOMAC Joint Stiffness score: −43.8%
[11]
  Change of WOMAC Joint Stiffness score from baseline (±SEM), adjusted by […] of the Testing Drug Amount: −41.9(±5.3) mm
  Percentage of improvement from baseline, WOMAC Joint Stiffness score, adjusted by […] of the Testing Drug Amount: −67.4%
  Change of WOMAC Joint Stiffness score from baseline (±SEM): −24.4(±3.1) mm
  Percentage of improvement from baseline, WOMAC Joint Stiffness score: −39.3%
[12]
  Change of WOMAC Joint Stiffness score from baseline (±SEM), adjusted by […] of the Testing Drug Amount: −19.3(±4.6) mm
  Percentage of improvement from baseline, WOMAC Joint Stiffness score, adjusted by […] of the Testing Drug Amount: −31.2%
  Change of WOMAC Joint Stiffness score from baseline (±SEM): −11.3(±2.7) mm
  Percentage of improvement from baseline, WOMAC Joint Stiffness score: −18.2%
[13]
  Change of WOMAC Joint Stiffness score from baseline (±SEM), adjusted by […] of the Testing Drug Amount: −30.2(±5.0) mm
  Percentage of improvement from baseline, WOMAC Joint Stiffness score, adjusted by […] of the Testing Drug Amount: −48.5%
  Change of WOMAC Joint Stiffness score from baseline (±SEM): −17.6(±2.9) mm
  Percentage of improvement from baseline, WOMAC Joint Stiffness score: −28.3%
